{"source": "paper PMC7794397", "about": "“Curbing gastrointestinal infections by defensin fragment modifications without harming commensal microbiota” (Communications Biology, 2021)", "key": {"S. aureus ATCC25923": {"system": "S. aureus ATCC25923", "assay": "Treatment of established biofilms", "type": "cell-based", "settings": "24 h old biofilm, 1 h treatment", "protocol": "Then, planktonic bacteria were removed by two wash steps with PBS. […] Afterward, adherent bacteria in each well were resuspended, and the number of viable bacteria was determined microbiologically. […] The biofilm degradation assay was performed in agreement with the original report describing this method first."}, "[1]": {"system": "C. rodentium strain ICC180", "assay": "Citrobacter rodentium gastrointestinal infection in mice", "type": "in vivo, C57BL/6N mice", "protocol": "Bioluminescence expressing C. rodentium strain ICC180 was used for all infection experiments. C. rodentium inocula were prepared by culturing bacteria overnight at 37 °C in LB broth with 50 µg/ml kanamycin. Subsequently, the culture was diluted 1:100 in fresh medium, and sub-cultured for 4 h at 37 °C in LB broth. Bacteria were washed twice in phosphate-buffered saline (PBS). Mice were orally inoculated with 10^8 CFU of C. rodentium diluted in 200 µl PBS. Weight of the mice was monitored and feces were collected for measurements of the pathogen burden. After 5 days post infection mice received twice 250 µg peptide solved in 100 µl PBS or only PBS orally. The following day, mice were sacrificed to assess bacterial burden in the lumen and tissues of the cecum and the colon.\nAll mice were euthanized by asphyxiation with CO2 at indicated time points. Intestinal tissues (small intestine, cecum, colon) were removed aseptically. To collect intestinal content, organs were flushed with PBS. Organs were opened longitudinally, cleaned thoroughly with PBS and weighted. Organs and content were homogenized in PBS using a Polytron homogenizer (Kinemtatica). Dilutions of homogenized samples were plated on LB plates containing 50 μg/ml kanamycin to determine CFUs."}, "S. aureus NCTC8325": {"system": "S. aureus NCTC8325", "assay": "Transmission and scanning electron microscopy", "type": "cell-based", "settings": "37.5 µM Pam-3 (4x MIC), 30 min", "from_the_text": "As a control, bacteria were exposed to 0.01% acetic acid. Afterward bacteria were fixed in Karnovsky’s reagent.\nFor transmission electron microscopy (TEM), bacteria were high-pressure frozen (HPF Compact 03, Engineering Office M. Wohlwend GmbH) in capillaries, freeze-substituted (AFS2, Leica Microsystems) with 2% OsO4 and 0.4% uranyl acetate in acetone as substitution medium and embedded in EPON. Ultrathin sections were stained with uranyl acetate and lead citrate and analyzed with a Tecnai Spirit (Thermo Fisher Scientific) operated at 120 kV.\nFor scanning electron microscopy (SEM), bacteria were washed in PBS and finally fixed with 1% OsO4 on ice for 1 h. Next, samples were prepared on polylysin-coated coverslips, dehydrated in a graduated series to 100% ethanol and critical point dried (Polaron) with CO2. Finally, samples were sputter-coated with a 3 nm thick layer of platinum (Safematic CCu-010) and examined with a Hitachi Regulus 8230 field emission scanning electron microscope (Hitachi) at an accelerating voltage of 5 kV."}, "[2]": {"system": "B. subtilis ypuA promoter", "assay": "ypuA promoter luciferase reporter strain (cell envelope stress)", "type": "cell-based", "protocol": "A specific bacterial reporter strain with the genetic background of Bacillus subitilis 1S34, carrying the promoter of the ypuA gene, fused to the firefly luciferase reporter gene, was used to identify cell envelope-related damage caused by treatment with antimicrobial compounds[31]. The assay was carried out in agreement with former reports describing this method[20],[59]. Bacteria were cultured to an OD600 of 0.9 in LB broth with 5 µg/ml erythromycin at 37 °C and diluted to an OD600 of 0.02. Serial peptide dilutions (0.15–150 µM) were prepared in a microtiter plate and incubated with the adjusted bacterial suspension at 37 °C for 1 h. Subsequently, citrate buffer (0.1 M, pH 5) containing 2 mM luciferin (Iris Biotech, Germany) was added and luminescence was measured using a microplate reader (Tecan, Switzerland)."}, "[3]": {"settings": "two doses of 250 µg orally 5 days p.i., following day, individual animals, N = 11"}}, "note": "Several values for one entry are separate records, joined by “and”; a condition that tells them apart may be missing. Identical values can stand only once. Residues, ends and D or L forms follow the SMILES beside them. *: point of attachment. Palmitoyl = CCCCCCCCCCCCCCCC(=O)*; AEEA = NCCOCCOCC(=O)O"}
{"molecule": "CCCCCCCCCCCCCCCC(=O)NCCOCCOCC(=O)N[C@@H](CCCNC(=N)N)C(=O)NCC(=O)N[C@@H](CCCCN)C(=O)N[C@@H](C)C(=O)N[C@@H](CCCCN)C(=O)N[C@@H](CS)C(=O)N[C@@H](CS)C(=O)N[C@@H](CCCCN)C(=O)O", "note": "[Pam-3] ({Palmitoyl-AEEA}-RGKAKCCK-OH; C-terminus assumed)", "values": [{"measurement": "viable bacteria in biofilm", "setting": "S. aureus ATCC25923; 37.5 µM Pam-3, experiment 3", "value": 5966667, "unit": "CFU/ml"}, {"measurement": "viable bacteria in biofilm", "setting": "S. aureus ATCC25923; 75 µM Pam-3, experiment 1", "value": 1496667, "unit": "CFU/ml"}, {"measurement": "viable bacteria in biofilm", "setting": "S. aureus ATCC25923; 75 µM Pam-3, experiment 2", "value": 239889, "unit": "CFU/ml"}, {"measurement": "viable bacteria in biofilm", "setting": "S. aureus ATCC25923; 75 µM Pam-3, experiment 3", "value": 3451667, "unit": "CFU/ml"}, {"measurement": "viable bacteria in biofilm", "setting": "S. aureus ATCC25923; 150 µM Pam-3, experiment 1", "value": 150333, "unit": "CFU/ml"}, {"measurement": "viable bacteria in biofilm", "setting": "S. aureus ATCC25923; 150 µM Pam-3, experiment 2", "value": 9167, "unit": "CFU/ml"}, {"measurement": "viable bacteria in biofilm", "setting": "S. aureus ATCC25923; 150 µM Pam-3, experiment 3", "value": 24500, "unit": "CFU/ml"}, {"measurement": "viable bacteria in biofilm", "setting": "S. aureus ATCC25923; 300 µM Pam-3, experiment 1", "value": 67, "unit": "CFU/ml"}, {"measurement": "viable bacteria in biofilm", "setting": "S. aureus ATCC25923; 300 µM Pam-3, experiment 2", "value": 333, "unit": "CFU/ml"}, {"measurement": "viable bacteria in biofilm", "setting": "S. aureus ATCC25923; 300 µM Pam-3, experiment 3", "value": 1300, "unit": "CFU/ml"}, {"measurement": "viable Citrobacter in colon content and colon tissue vs PBS (in words)", "setting": "[1]; Mann–Whitney p = 0.0010 and p = 0.0104", "value": "significantly reduced"}, {"measurement": "bacteria in cecum content and cecum tissue vs PBS (in words)", "setting": "[1]; Mann–Whitney p = 0.0104 and p = 0.0473", "value": "reduced the number of bacteria"}, {"measurement": "C. rodentium in cecum content", "setting": "[1]; [3]", "value": "20533880 CFU/g and 455636 CFU/g and 278413400 CFU/g and 15654650 CFU/g and 366007 CFU/g and 16133443 CFU/g and 143723333 CFU/g and 2819342 CFU/g and 262402624 CFU/g and 251094891 CFU/g and 226500566 CFU/g"}, {"measurement": "C. rodentium in cecum tissue", "setting": "[1]; [3]", "value": "490000 CFU/g and 307086614 CFU/g and 556897 CFU/g and 3530864 CFU/g and 21702128 CFU/g and 74039735 CFU/g and 1204147 CFU/g and 780234 CFU/g and 18903800 CFU/g and 586941 CFU/g and 191336 CFU/g"}, {"measurement": "C. rodentium in colon content", "setting": "[1]; [3]", "value": "1762185 CFU/g and 60751515 CFU/g and 1789819 CFU/g and 315018315 CFU/g and 310211946 CFU/g and 1173126615 CFU/g and 2621359 CFU/g and 289220 CFU/g and 25236170 CFU/g and 708075 CFU/g and 1616071 CFU/g"}, {"measurement": "C. rodentium in colon tissue", "setting": "[1]; [3]", "value": "58623.6 CFU/g and 30241621 CFU/g and 100000 CFU/g and 24432209 CFU/g and 42962357 CFU/g and 13239974 CFU/g and 61561.6 CFU/g and 13820.3 CFU/g and 2719752 CFU/g and 44329.9 CFU/g and 628386 CFU/g"}, {"measurement": "bacterial morphology, TEM (in words)", "setting": "S. aureus NCTC8325", "value": "strong cell envelope damage with disrupted membranes and pores in most of the cells"}, {"measurement": "activation of the ypuA promoter", "setting": "[2]", "value": 2, "unit": "fold"}, {"measurement": "ypuA promoter activation (relative to untreated = 1)", "setting": "[2]; 0.031x MIC Pam-3, 1 h, experiment 1", "value": 1.05}, {"measurement": "ypuA promoter activation (relative to untreated = 1)", "setting": "[2]; 0.031x MIC Pam-3, 1 h, experiment 2", "value": 1.15}, {"measurement": "ypuA promoter activation (relative to untreated = 1)", "setting": "[2]; 0.031x MIC Pam-3, 1 h, experiment 3", "value": 1.17}, {"measurement": "ypuA promoter activation (relative to untreated = 1)", "setting": "[2]; 0.062x MIC Pam-3, 1 h, experiment 1", "value": 1.16}, {"measurement": "ypuA promoter activation (relative to untreated = 1)", "setting": "[2]; 0.062x MIC Pam-3, 1 h, experiment 2", "value": 1.27}, {"measurement": "ypuA promoter activation (relative to untreated = 1)", "setting": "[2]; 0.062x MIC Pam-3, 1 h, experiment 3", "value": 1.36}, {"measurement": "ypuA promoter activation (relative to untreated = 1)", "setting": "[2]; 0.125x MIC Pam-3, 1 h, experiment 1", "value": 1.38}, {"measurement": "ypuA promoter activation (relative to untreated = 1)", "setting": "[2]; 0.125x MIC Pam-3, 1 h, experiment 2", "value": 1.48}, {"measurement": "ypuA promoter activation (relative to untreated = 1)", "setting": "[2]; 0.125x MIC Pam-3, 1 h, experiment 3", "value": 1.76}, {"measurement": "ypuA promoter activation (relative to untreated = 1)", "setting": "[2]; 0.25x MIC Pam-3, 1 h, experiment 1", "value": 2.12}, {"measurement": "ypuA promoter activation (relative to untreated = 1)", "setting": "[2]; 0.25x MIC Pam-3, 1 h, experiment 2", "value": 2}, {"measurement": "ypuA promoter activation (relative to untreated = 1)", "setting": "[2]; 0.25x MIC Pam-3, 1 h, experiment 3", "value": 2.57}, {"measurement": "ypuA promoter activation (relative to untreated = 1)", "setting": "[2]; 0.5x MIC Pam-3, 1 h, experiment 1", "value": 0.23}, {"measurement": "ypuA promoter activation (relative to untreated = 1)", "setting": "[2]; 0.5x MIC Pam-3, 1 h, experiment 2", "value": 0.18}, {"measurement": "ypuA promoter activation (relative to untreated = 1)", "setting": "[2]; 0.5x MIC Pam-3, 1 h, experiment 3", "value": 0.26}, {"measurement": "ypuA promoter activation (relative to untreated = 1)", "setting": "[2]; 1x MIC Pam-3, 1 h, experiment 1", "value": 0}, {"measurement": "ypuA promoter activation (relative to untreated = 1)", "setting": "[2]; 1x MIC Pam-3, 1 h, experiment 2", "value": 0}, {"measurement": "ypuA promoter activation (relative to untreated = 1)", "setting": "[2]; 1x MIC Pam-3, 1 h, experiment 3", "value": 0.02}, {"measurement": "ypuA promoter activation (relative to untreated = 1)", "setting": "[2]; 2x MIC Pam-3, 1 h, experiment 1", "value": 0}, {"measurement": "ypuA promoter activation (relative to untreated = 1)", "setting": "[2]; 2x MIC Pam-3, 1 h, experiment 2", "value": 0}, {"measurement": "ypuA promoter activation (relative to untreated = 1)", "setting": "[2]; 2x MIC Pam-3, 1 h, experiment 3", "value": 0}]}
